# Entries after “also recorded” stand apart in the source; their conditions may differ. Like-named read-outs stand apart in the source and are kept apart here.
# How the values were obtained:
# [1] = target: T1, HDAC1 (Homo sapiens, UniProt Q13547); experiment: RapidFire Mass Spec assay of HDAC1 deacetylase activity with acetylated peptide substrates; format: biochemical; settings: for HDAC1 activation (deacetylase activity): Bio-H4K12ac and bio-p53K382ac peptide substrates; for reversal of HDAC1 inhibition by CI-994: HDAC1 preincubated with exifone 1 or 10 μM, or with CI-994 1, 5 or 10 μM for 2 hours
# T1 construct: purchased BPS Biosciences (San Diego, Calif.)
# T1 sequence (Q13547 whole entry): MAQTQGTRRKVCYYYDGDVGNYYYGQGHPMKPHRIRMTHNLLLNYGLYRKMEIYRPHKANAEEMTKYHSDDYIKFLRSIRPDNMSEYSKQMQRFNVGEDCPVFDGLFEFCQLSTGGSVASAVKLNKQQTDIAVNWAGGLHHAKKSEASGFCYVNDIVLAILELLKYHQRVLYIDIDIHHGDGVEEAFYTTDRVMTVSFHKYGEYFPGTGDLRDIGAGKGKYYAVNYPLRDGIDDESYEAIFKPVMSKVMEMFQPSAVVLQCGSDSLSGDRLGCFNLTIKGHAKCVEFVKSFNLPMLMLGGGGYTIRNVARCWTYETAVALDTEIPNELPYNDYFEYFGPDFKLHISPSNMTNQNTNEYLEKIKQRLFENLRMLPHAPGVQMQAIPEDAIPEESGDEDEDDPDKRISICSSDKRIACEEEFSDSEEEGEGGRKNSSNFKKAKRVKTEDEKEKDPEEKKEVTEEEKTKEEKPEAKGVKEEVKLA
# Description: (§1) Bio-H4K12ac and Bio-p53K382ac peptides were purchased from Anaspec (Fremont, Calif.). Recombinant HDAC1 and HDAC2 were from BPS Biosciences (San Diego, Calif.). Biochemical assays for evaluation of enzyme activity were performed in 384-well microplates (Perkin Elmer, Waltham, Mass.). A high throughput mass spectrometry assay based on RapidFire™ platform (Agilent Technology, Wakefield, Mass.) was used for analysis of HDAC activity with acetylated peptide substrates derived from histone Bio-H4K12ac (Anaspec #64849) and non-histone Bio-p53K382ac (Anaspec #65046) sequences.
# For determination of dose dependence curves, test compounds were preincubated with HDAC1 for 15 minutes. Histone deacetylase reactions were performed following addition of acetylated peptide substrate. The reactions were performed in standard 384-well plates in 50 μl volume with an assay buffer containing 50 mM Tris, pH 7.4, 100 mM KCl, and 0.01% Brij-35. Enzyme reactions were terminated by adding 5 μl of 10% formic acid. Experiments designed to determine the mechanism of action used a varied range of substrate and test compound concentrations. For determining the dose response of individual compounds, HDAC1 reactions were performed with 1 μM of the acetylated peptide substrate for durations ranging from 45 mins for Bio-p53K382ac and 60 minutes for Bio-H4K12ac, with the aim of keeping the substrate conversion below 10%.
# For Mass Spec based detection, assay plates were transferred onto a high throughput RapidFire200 integrated autosampler/solid-phase extraction (SPE) system (Agilent Technologies, Wakefield, Mass.) coupled to an API4000 triple quadrupole mass spectrometer (Applied Biosystems, Concord, Ontario, Canada). Additional details for the RapidFire MS analysis are described elsewhere (Rye et al. Advances in label-free screening approaches for studying sirtuin-mediated deacetylation. J Biomol Screen. 2011 December; 16(10):1217-26; Rye et al. Advances in label-free screening approaches for studying histone acetyltransferases. J Biomol Screen. 2011 December; 16(10):1186-95). The peaks detected by Mass Spec were integrated and processed with RapidFire peak integration software (Agilent).
# Percentage of substrate conversion was estimated from the RapidFire HTMS assay as a function of product and substrate mass spectrum peak areas and is equal to 100*[Product/(Product+Substrate)]. Percentage of enzyme activation=[(MIN-test compound)/(MIN−MAX)*100], where MINimal (0%) enzyme activity is observed in the presence of a histone deacetylase inhibitor [10 μM SAHA (suberoylanilide hydroxamic acid), SAHA; Vorinostat] and MAXimal enzyme activity of HDAC1 reaction in absence of test compound as 100% activity. MAX and MIN values were calculated from an average of 16 wells of a single column of 384 well plate. Data were analyzed and plotted using Graphpad Prism 6.
# Activator potencies were compared by estimating the EC^1.5 values as a function of EC50 values and maximum relative velocity (RVmax) (Dai et al, 2010). EC^1.5 is the concentration of the activator required to achieve 1.5 fold activation (Dai et al, 2010). Data on enzyme activation were analyzed using non-essential enzyme activation (Segel, (1975) Enzyme Kinetics, John Wiley, New York).
# [2] = test system: 5XFAD mice; experiment: Western blotting of hippocampi of treated 5XFAD mice (histone deacetylation); format: in vivo, mouse; settings: 50 mg/kg i.p. for 2 weeks
# Description: To determine the effects of restoration of HDAC1 activity in 5XFAD mice, mice were treated with exifone. Briefly, eight-month-old mice were administered doses of 50 mg/kg body weight exifone or vehicle control (10% DMSO, 10% Tween-80 and 80% saline) by intraperitoneal injection for 2 weeks. After 2 weeks of treatment, hippocampi were dissected and homogenized in RIPA buffer for Western blotting (FIGS. 10B and 10C).
# [3] = test system: Human induced pluripotent stem cell (iPSC)-derived neurons; experiment: Viability (Alamar Blue) of human iPSC-derived neurons under rotenone stress; format: cell-based
# Excerpt: To further determine the effects of exifone on neurodegenerative disorders like frontotemporal dementia, Alzheimer's disease, and Parkinson's disease, a cellular model of mitochondrial dysfunction and tauopathy was used. Human induced pluripotent stem cell (iPSC)-derived neurons from a healthy control (FIG. 15A) and a frontotemporal dementia patient with a mutation in tau (FIG. 15B) were differentiated in culture for eight weeks (See Silva et al., Stem Cell Reports, 2016). […] Cell viability was measured by Alamar Blue (4 h) assay±SD. Statistical Analysis: Student T-Test; ^nsP>0.05, *P<0.05, **P<0.01, ***P<0.001; n=2 and technical triplicates.
# [4] = test system: 5XFAD mice; experiment: LTP recording in hippocampal slices of treated 5XFAD mice; format: in vivo, mouse; settings: thirteen-month-old 5XFAD mice, 50 mg/kg i.p. for 2 weeks
# Description: Thirteen-month-old mice were administered doses of 50 mg per kg body weight exifone or vehicle by intraperitoneal injection for 2 weeks before long-term potentiation (LTP) recordings. For LTP recording, mice were anesthetized with isoflurane and decapitated. Transverse hippocampal slices (400 μm thick) were prepared in ice-cold dissection buffer (in mM: 211 sucrose, 3.3 KCl, 1.3 NaH2PO4, 0.5 CaCl2, 10 MgCl2, 26 NaHCO3 and 11 glucose) using a Leica VT1000S vibratome (Leica). Slices were recovered in a submerged chamber with 95% O2/5% CO2-saturated artificial cerebrospinal fluid (ACSF) consisting of (in mM) 124 NaCl, 3.3 KCl, 1.3 NaH2PO4, 2.5 CaCl2, 1.5 MgCl2, 26 NaHCO3 and 11 glucose for 1 h at 28-30° C. For extracellular LTP recording, CA1 field potentials evoked by Schaffer collateral stimulation with bipolar electrode was measured every 30 s. After recording of stable baseline for 15 min, LTP was induced by single theta-burst stimulations (TBS, containing 10 brief bursts which consisted of four pulses at 100 Hz).
# [5] = test system: CK-p25 mice; experiment: CK-p25 mouse model of neurodegeneration: immunohistochemistry and fear conditioning; format: in vivo
# Description: (§2) For contextual fear conditioning, mice were put in the conditioning chamber (TSE systems) for 3 min, after which they received a one-time footshock (2 s, 0.8 mA). After 24 hr in the home cage, mice were placed in the same chamber and the freezing bouts, defined as a total lack of movement except for a heartbeat and respiration, were scored during every 10 s during a 3 min period.
# (§3) Cued fear conditioning was performed by placing the animals in the test chamber for 3 min following exposure to the auditory cue (30 s, 20 kHz, 75 db sound pressure level) and a foot shock (2 s, 0.8 mA). Associative learning was assessed 24 hr later by placing the mice in the modified chamber and delivery of the identical auditory cue for 3 min.
# CK-p25 mice are characterized by massive neuronal loss and severe memory impairment after 6 weeks of the p25 transgene induction (Cruz et al. Aberrant Cdk5 activation by p25 triggers pathological events leading to neurodegeneration and neurofibrillary tangles. Neuron. 2003 Oct. 30; 40(3):471-83). Exifone was chronically administered in CK-p25 mice, model, 3-month-old CK-p25 mice and control mice (no p25 overexpression) were induced for 6 weeks. They received either daily Exifone or vehicle for 3 weeks from week 3 to 6 during the induction period (FIG. 8A).
# The associative memory in mice was examined by the contextual fear conditioning test described in Example 3. Mice were treated with vehicle control or exifone and freezing behavior observed 24 hours after contextual fear conditioning training.
# [6] = test system: 5XFAD mice; experiment: 5XFAD mice behavioral tests (open field, contextual and cued fear conditioning); format: in vivo, mouse; settings: 50 mg/kg i.p. for 2 weeks
# Description: 8-month-old males (WT or 5XFAD mice) received daily for two weeks of full treatment either vehicle (80% saline, 10% DMSO, 10% Tween-80) or exifone (FIG. 1A) (50 mg/kg). Administration was by intraperitoneal injection for 2 weeks. After 2 weeks of treatment, mice were handled more than 3 days before each behavioral test.
# Open field test was monitored by TSE Multi Conditioning System, total distance traveled and the number of visits in center were measured using automated activity monitors.
# To assess memory formation, fear-conditioning tests in rodents were used. In these paradigms, the extent of freezing behavior, which is defined as the complete lack of movement other than from respiration upon re-exposure to an aversive stimulus (e.g. mild foot shock) and an environmental cue in the form of a specific context (e.g. test chamber) or cue (e.g. a tone), provides an assessment of the strength of memory. […]
# as §2, §3
# Behavioral tests were performed on vehicle treated wild type (WT) mice and 5XFAD mice treated with either vehicle control or exifone. […] In both contexts, freezing behavior of the mice was scored for examination memory.
# [7] = test system: cultured neurons; experiment: Immunostaining for γH2AX (DNA double-stranded breaks) in cultured neurons; format: cell-based
# [8] = target: T2, HDAC2 (Homo sapiens, UniProt Q92769); experiment: RapidFire Mass Spec assay of HDAC2 deacetylase activity; format: biochemical; settings: FIG. 4; read-out: EC50 for HDAC2 activation
# T2 construct: purchased BPS Biosciences (San Diego, Calif.)
# T2 sequence (Q92769 whole entry): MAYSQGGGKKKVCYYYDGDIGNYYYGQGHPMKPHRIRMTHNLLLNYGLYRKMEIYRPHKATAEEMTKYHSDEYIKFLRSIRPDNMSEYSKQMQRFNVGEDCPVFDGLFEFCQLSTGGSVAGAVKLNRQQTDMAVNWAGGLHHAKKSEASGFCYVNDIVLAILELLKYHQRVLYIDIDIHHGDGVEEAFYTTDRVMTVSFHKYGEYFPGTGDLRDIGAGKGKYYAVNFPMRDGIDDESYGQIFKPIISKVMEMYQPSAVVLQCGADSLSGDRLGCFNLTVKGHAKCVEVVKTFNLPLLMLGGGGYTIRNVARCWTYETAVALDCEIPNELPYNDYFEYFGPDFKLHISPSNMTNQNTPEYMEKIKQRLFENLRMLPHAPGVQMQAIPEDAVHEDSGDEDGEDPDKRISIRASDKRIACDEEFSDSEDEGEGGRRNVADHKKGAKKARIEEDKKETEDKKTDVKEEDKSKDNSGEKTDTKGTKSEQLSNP
# Description: as §1
# For determination of dose dependence curves, test compounds were preincubated with HDAC1 for 15 minutes. […]
# For Mass Spec based detection, assay plates were transferred onto a high throughput RapidFire200 integrated autosampler/solid-phase extraction (SPE) system (Agilent Technologies, Wakefield, Mass.) coupled to an API4000 triple quadrupole mass spectrometer (Applied Biosystems, Concord, Ontario, Canada). […] The peaks detected by Mass Spec were integrated and processed with RapidFire peak integration software (Agilent).
# Percentage of substrate conversion was estimated from the RapidFire HTMS assay as a function of product and substrate mass spectrum peak areas and is equal to 100*[Product/(Product+Substrate)]. […] MAX and MIN values were calculated from an average of 16 wells of a single column of 384 well plate. […]
# [9] = increasing exifone concentrations
# [10] = AD mice model (CK-p25 mice) as printed
compound,measurement,setting,value
O=C(c1ccccc1)c1ccccc1 [Benzophenone],HDAC1 activation (deacetylase activity),[1],did not cause HDAC1 activation
same,HDAC1 activation (deacetylase activity),[1]; listed as non-hydroxylated benzophenone,does not
O=C(c1cc(O)c(O)c(O)c1)c1ccc(O)c(O)c1O [exifone],maximal activation of HDAC1,[1]; 2 hour incubation of HDAC1 at room temperature prior to addition to reaction mix,up to nine fold
same,HDAC1 activation (deacetylase activity),[1],dose-dependent increase in HDAC1 activation; also recorded: potent small molecule activator of HDAC1; also recorded: increases the deacetylase activity of HDAC1
same,selectivity for HDAC1 activation compared with HDAC2,[1]; FIG. 4,at least four fold more selective
same,EC50,"[1]; FIG. 4, read-out: EC50 for HDAC1 activation (selectivity experiment)",20 nM
same,EC50,"[1]; FIGS. 1B and 1D, 2 hour incubation of HDAC1 at room temperature prior to addition to reaction mix, read-out: EC50 of HDAC1 activation",45 nM
same,reversal of HDAC1 inhibition by CI-994,[1],capable of reversing inhibition
same,reversal of HDAC1 inhibition by CI-994,[1]; listed as Exifone,partially reversed the inhibitory effect
same,HDAC1 activation at high substrate concentration,[1]; bio-H4K12ac peptide concentrations of 125 and 250 μM,No activation was observed
same,Vmax of HDAC1 reaction,[1]; [9],increased the Vmax
same,apparent Km for the bio-H4K12ac peptide,[1]; [9],decreased the apparent Km
same,rate of HDAC1-mediated deacetylation (substrate conversion),"[1]; substrate 1 μM, HDAC1 40 nM, exifone 0.05 μM vs control",increased the rate of HDAC1-mediated reactions compared to control conditions; also recorded: increases the rate of deacetylation reaction by HDAC1
same,mechanism of HDAC1 activation,[1]; varied substrate and activator concentrations,mixed non-essential reaction
same,histone deacetylation and HDAC1 activity in hippocampus,[2],trend towards increased histone deacetylation and HDAC1 activity
same,rescue of viability of tauopathy patient-derived neurons from rotenone-induced stress,"[3]; 8 hours pre-treatment, then 18 hour rotenone, multiple doses",rescued the vulnerability
same,LTP induction,[4],reinstatement of LTP induction
same,basal locomotion in the open-field test,[5]; [10],without an effect on basal locomotion
same,cognitive function in cued fear-conditioning test,[5]; [10],not in cued fear-conditioning test
same,freezing behavior / cognitive function in contextual fear conditioning test,"[5]; CK-p25 mice, 24 hours after training",enhances the cognitive function; also recorded: comparable freezing behavior to vehicle-treated or exifone-treated control mice
same,"neuronal loss / markers of neurodegeneration (γH2A.X, NeuN, Hoechst) in hippocampus","[5]; CK-p25 mice, daily for 3 weeks during p25 induction",significantly ameliorated neuronal loss; also recorded: significant reduction of these markers of neurodegeneration; also recorded: ameliorates neuronal loss
same,freezing response in conditioned (contextual) fear conditioning test,[6],significantly increased
same,freezing response in cued fear conditioning test,[6],significantly increased
same,open-field total distance traveled and number of visits to the center,[6],no effect on either of these parameters
same,γH2AX intensity (DNA damage),[7],significantly reduced the intensity of γH2AX; also recorded: protection from DNA damage
same,EC50,[8],82 nM
C=C(C)[C@H]1Cc2c(ccc3c2O[C@@H]2COc4cc(OC)c(OC)cc4[C@@H]2C3=O)O1 [rotenone],decrease in viability of tauopathy patient-derived neurons,"[3]; rotenone, 18 hour",> 50%
